Source: US8796280B2, “2,3-disubstituted pyrazinesulfonamides as CRTH2 inhibitors” (Merck Serono, S.A., priority 2005, dated 2014)

Legend:
CRTH2 [1] = target: T1, CRTH2 (Homo sapiens (Human), UniProt Q9Y5Y4); experiment: Determination of Ki, equilibrium competition binding against [3H]PGD2; conditions: competition against [3H]PGD2; average of at least three independent dose response experiments; Ki calculated from IC50
Procedure: (§1) The inhibitory activity can be investigated by a radioligand binding assay (Sawyer et al., Br. J. Pharmocol 2002, 137, 1163-72). The radioligand binding assay was performed at room temperature in binding buffer (10 mM HEPES/KOH pH […], with protease inhibitor cocktail tablets), containing 1.5 nM [^3H]PGD2 (Amersham, 156 Cie/mmol), and 10 μg of hCRTH2 HEK293 (EBNA) cell membrane protein in a final volume of 100 μl in 96 well plates (Corning, USA). Non-specific binding was determined in the presence of 1 μM PGD2 (Cayman, USA). Competing pyrazine sulfonamides were diluted in dimethylsulphoxide so that the total volume of dimethylsulfoxide was kept constant at 1% dimethylsulphoxide (Me2SO). 10 μl of the pyrazine sulfonamides were added. Incubation (60 min at room temperature) was terminated by rapid filtration through 96 wells hydrophobic GF/C Unifilter plates (Whatman, USA). Filters were washed twice with 250 μl of Tris-HCl pH 7.4, 10 mM MnCl2, and residual radioligand bound to the filters was mixed to 100 μl of liquid scintillation cocktail (Optiphase Supermix, Perkin Elmer, USA) and binding activity was determined by counting residual radioligand using a 1450 Micro-beta scintillation counter (Wallac, UK).
Ki values were determined by equilibrium competition binding experiments against [^3H]PGD2. Ki values were calculated from the formula below and represent the average of at least three independent dose response experiments. The Ki values give the ligand concentrations necessary to inhibit 50% of the binding of 3[H]PGD2 to CRTH2. Ki=IC50/(1+[Concentration of Ligand]/Kd)]
All experiments were performed in 96 well plates, in a final volume of 100 μl according to the above described filtration assay. The concentration of membranes and 3[H]PGD2, as well as the positive and negative controls were identical to the conditions described above.

CRTH2 [2] = target: T1, CRTH2; experiment: Radioligand binding assay ([3H]PGD2 displacement, hCRTH2 HEK293 (EBNA) cell membranes); conditions: 1.5 nM [3H]PGD2, 10 μg hCRTH2 HEK293 (EBNA) membrane protein, 60 min room temperature; test concentration not given
Source text: Human CRTH2 cDNA was amplified by PCR using a human urinary bladder cDNA library as a template and specific primers containing HindIII and BamHI restriction sites for cloning into the pCEP4 vector (Invitrogen). The vector construction is described in detail in Sawyer et al., Br. J. Pharmocol 2002, 137, 1163-72. The nucleotide sequence of the cloned cDNA was identical the previously reported hCRTH2 sequence (Nagata et al, 1999, J. Immunol. 162, 1278-1286).
HEK293 (EBNA) cells were transfected with the pCEP4-hCRTH2 construct using the calcium phosphate technique. Cells were maintained in culture at 37° C. in an atmosphere of 5% CO2 in Dulbecco's modified Eagle's F12 medium (Invitrogen), containing 10% heat-inactivated foetal calf serum (TerraCell International, Canada), 2 mM Glutamine, 100 units/ml of penicillin and 100 μg/ml streptomycin (Invitrogen). 48 hours after the transfection, cells were grown in presence of 300 μg/ml of Hygromycin B (Invitrogen) for 4 weeks and antibiotic resistant cells were amplified for cell membrane preparation.
Adherent HEK293 (EBNA) cells expressing hCRTH2 were cultured in 225 cm^2 cell culture flasks (Corning, USA) in 30 ml of medium. After two rinses of phosphate buffered saline (PBS), cells were harvested in 10 ml of PBS containing 1 mM EDTA, centrifuged at 500×g for 5 min at 4° C. and frozen at −80° C. The pellet was re-suspended in 50 mM Tris-HCl, pH 7.4, 2 mM EDTA, 250 mM Sucrose, containing protease inhibitor cocktail tablets, (Complete EDTA-free, Roche, Germany) and incubated 30 min at 4° C. Cells were disrupted by nitrogen cavitation (Parr Instruments, USA) at 4° C. (800 p.s.i. for 30 min), and centrifuged at 500×g for 10 min at 4° C. Pellet containing nuclei and cellular debris was discarded and supernatant was centrifuged 60 min at 4° C. at 45000×g. Membrane pellet was re-suspended in storage buffer (10 mM HEPES/KOH pH 7.4, 1 mM EDTA, 250 mM sucrose, protease inhibitor cocktail tablets) using Dounce homogenization and frozen in liquid nitrogen, and stored at −80° C.
as §1

T1 sequence (Q9Y5Y4 whole entry): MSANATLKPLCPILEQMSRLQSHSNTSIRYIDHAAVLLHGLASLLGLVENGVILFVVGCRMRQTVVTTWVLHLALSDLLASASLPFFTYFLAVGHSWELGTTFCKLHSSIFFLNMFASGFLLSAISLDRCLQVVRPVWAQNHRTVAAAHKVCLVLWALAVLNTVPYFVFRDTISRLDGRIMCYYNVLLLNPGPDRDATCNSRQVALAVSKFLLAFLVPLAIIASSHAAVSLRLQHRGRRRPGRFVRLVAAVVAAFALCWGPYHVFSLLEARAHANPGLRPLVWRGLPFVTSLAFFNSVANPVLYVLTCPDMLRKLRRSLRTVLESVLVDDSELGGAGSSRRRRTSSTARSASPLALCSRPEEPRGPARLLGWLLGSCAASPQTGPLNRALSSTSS

Row | Compound | Ki (CRTH2 [1]) [µM] | Inhibition hCRTH2 [%] (CRTH2 [2])
1 | O=S(=O)(Nc1nccnc1-c1ccc(CNc2ccc3c(c2)OCO3)cc1)c1ccccc1C(F)(F)F [Compound 9, N-(3-{4-[(1,3-benzodioxol-5-ylamino)methyl]phenyl}pyrazin-2-yl)-2-(trifluoromethyl)benzenesulfonamide] | 2.98 | 72.5
2 | CN(Cc1ccc(-c2nccnc2NS(=O)(=O)c2cccc(Cl)c2)cc1)c1ccc(OC(F)(F)F)cc1 [Compound 11, 3-chloro-N-{3-[4-({methyl[4-(trifluoromethoxy)phenyl]amino}methyl)phenyl]pyrazin-2-yl}benzenesulfonamide] | 5.16 | 65.0
3 | Cc1ccc(S(=O)(=O)Nc2nccnc2-c2ccc(CN(C)c3ccc(OC(F)(F)F)cc3)cc2)cc1 [Compound 14, 4-methyl-N-{3-[4-({methyl[4-(trifluoromethoxy)phenyl]amino}-methyl)phenyl]pyrazin-2-yl}benzenesulfonamide] | 5.85 | 53.0
4 | CN(Cc1ccc(-c2nccnc2NS(=O)(=O)c2ccc(Cl)cc2)cc1)c1ccccc1 [Compound 15, 4-chloro-N-[3-(4-{[methyl(phenyl)amino]methyl}phenyl)pyrazin-2-yl]-benzenesulfonamide] | 5.38 | 51.0
5 | CN(Cc1ccc(-c2nccnc2NS(=O)(=O)c2ccccc2Cl)cc1)c1ccccc1 [Compound 4, 2-chloro-N-[3-(4-{[methyl(phenyl)amino]methyl}phenyl)pyrazin-2-yl]-benzenesulfonamide] | 1.57 | 84.5
6 | O=S(=O)(Nc1nccnc1-c1ccc(COc2ccc3c(c2)CCCC3)cc1)c1ccccc1Cl [Compound 7, 2-chloro-N-(3-{4-[(5,6,7,8-tetrahydronaphthalen-2-yloxy)methyl]-phenyl}-pyrazin-2-yl)benzenesulfonamide] | 2.59 | 80.0
7 | COc1cccc(COCc2ccc(-c3nccnc3NS(=O)(=O)c3ccccc3C(F)(F)F)cc2)c1 [Compound 10, N-[3-(4-{[(3-methoxybenzyl)oxy]methyl}phenyl)pyrazin-2-yl]-2-(trifluoromethyl)benzenesulfonamide] | 1.4 | 72.0
8 | O=S(=O)(Nc1nccnc1N1CCN(Cc2ccc3ccccc3n2)CC1)c1ccc(Oc2ccccc2)cc1 [Compound 13, 4-phenoxy-N-{3-[4-(quinolin-2-ylmethyl)piperazin-1-yl]pyrazin-2-yl}-benzenesulfonamide] | 4.03 | 64.5
9 | CCN(Cc1ccc(-c2nccnc2NS(=O)(=O)c2ccccc2Cl)cc1)c1ccccn1 [Compound 45, 2-Chloro-N-(3-{4-[(ethyl-pyridin-2-yl-amino)-methyl]-phenyl}-pyrazin-2-yl)-benzenesulfonamide] | 4.51 | –
10 | CN(Cc1ccc(-c2nccnc2NS(=O)(=O)c2ccccc2Cl)cc1)c1ccccc1F [Compound 42, 2-Chloro-N-[3-(4-{[(2-fluoro-phenyl)-methyl-amino]-methyl}-phenyl)-pyrazin-2-yl]-benzenesulfonamide] | 3.9 | –
11 | CN(Cc1ccc(-c2nccnc2NS(=O)(=O)c2ccc(C#N)cc2)cc1)c1ccc(OC(F)(F)F)cc1 [Compound 16, 4-cyano-N-{3-[4-({methyl[4-(trifluoromethoxy)phenyl]amino}-methyl)phenyl]pyrazin-2-yl}benzenesulfonamide] | 5.71 | 47.0
12 | CN(Cc1ccc(-c2nccnc2NS(=O)(=O)c2ccccc2C(F)(F)F)cc1)c1ccccc1 [Compound 18, N-(3-{4-[(Methyl-phenyl-amino)-methyl]-phenyl}-pyrazin-2-yl)-2-trifluoromethyl-benzenesulfonamide] | 0.4 | –
13 | Cc1cc2ccccc2n1Cc1ccc(-c2nccnc2NS(=O)(=O)c2ccccc2Cl)cc1 [Compound 43, 2-Chloro-N-{3-[4-(2-methyl-indol-1-ylmethyl)-phenyl]-pyrazin-2-yl}-benzenesulfonamide] | 4.11 | –
14 | CN(Cc1ccc(-c2nccnc2NS(=O)(=O)c2ccccc2C(F)(F)F)cc1)c1ccc(F)cc1 [Compound 17, N-[3-(4-{[(4-Fluoro-phenyl)-methyl-amino]-methyl}-phenyl)-pyrazin-2-yl]-2-trifluoromethyl-benzenesulfonamide] | 0.38 | –
15 | CCc1nc2ccccc2n1Cc1ccc(-c2nccnc2NS(=O)(=O)c2ccccc2Cl)cc1 [Compound 8, 2-chloro-N-(3-{4-[(2-ethyl-1H-benzimidazol-1-yl)methyl]phenyl}pyrazin-2-yl)benzenesulfonamide] | 1.42 | 79.0
16 | O=S(=O)(Nc1nccnc1-c1ccc(Cn2ccc3cc(F)ccc32)cc1)c1ccccc1Cl [Compound 41, 2-Chloro-N-{3-[4-(5-fluoro-indol-1-ylmethyl)-phenyl]-pyrazin-2-yl}-benzenesulfonamide] | 3.9 | –
17 | O=S(=O)(Nc1nccnc1-c1ccc(COc2ccc3ccccc3c2)cc1)c1ccccc1Cl [Compound 5, 2-chloro-N-(3-{4-[(2-naphthyloxy)methyl]phenyl}pyrazin-2-yl)benzene-sulfonamide] | 2.32 | 82.0
18 | O=S(=O)(Nc1nccnc1-c1ccc(Cn2ccc3ccccc32)cc1)c1ccccc1Cl [Compound 6, 2-chloro-N-{3-[4-(1H-indol-1-ylmethyl)phenyl]pyrazin-2-yl}benzene-sulfonamide] | 2.12 | 81.5
19 | CN(Cc1ccc(-c2nccnc2NS(=O)(=O)c2cccs2)cc1)c1ccc(Cl)cc1 [Compound 12, N-[3-(4-{[(4-chlorophenyl)(methyl)amino]methyl}phenyl)pyrazin-2-yl]-thiophene-2-sulfonamide] | 8.43 | 65.0
